# Target: T1, human NOX3 (hNOX3) (Homo sapiens, UniProt Q9HBY0)
# T1 construct: pLV-CMV-hNOX3-puro (NM_015718.3); host or cells: HEK293 (CLS GmbH), lentiviral transduction
# T1 sequence (Q9HBY0 1-568): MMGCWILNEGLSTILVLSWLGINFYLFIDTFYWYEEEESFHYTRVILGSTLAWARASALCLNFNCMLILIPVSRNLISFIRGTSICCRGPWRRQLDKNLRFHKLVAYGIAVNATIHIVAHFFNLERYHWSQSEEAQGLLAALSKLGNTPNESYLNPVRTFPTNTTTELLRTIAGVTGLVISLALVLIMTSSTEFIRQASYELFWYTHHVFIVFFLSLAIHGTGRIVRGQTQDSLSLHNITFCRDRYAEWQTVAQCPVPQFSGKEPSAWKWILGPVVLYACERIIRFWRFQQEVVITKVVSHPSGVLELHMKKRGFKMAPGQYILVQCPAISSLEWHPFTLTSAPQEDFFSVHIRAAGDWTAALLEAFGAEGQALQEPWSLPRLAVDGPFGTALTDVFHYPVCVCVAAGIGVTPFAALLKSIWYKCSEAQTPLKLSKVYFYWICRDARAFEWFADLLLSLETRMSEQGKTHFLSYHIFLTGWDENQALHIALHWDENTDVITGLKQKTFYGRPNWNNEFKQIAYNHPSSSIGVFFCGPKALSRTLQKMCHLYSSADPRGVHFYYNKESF
# T1 sequence (P13498 2-195 partner limits assumed): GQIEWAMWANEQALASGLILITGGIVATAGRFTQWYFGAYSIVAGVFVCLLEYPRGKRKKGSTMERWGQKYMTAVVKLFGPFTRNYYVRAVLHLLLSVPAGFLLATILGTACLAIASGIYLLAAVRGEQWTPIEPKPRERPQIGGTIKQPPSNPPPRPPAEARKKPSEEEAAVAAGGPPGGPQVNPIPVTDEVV
# Experiment: NOX3 inhibition assay (L-012), HEK293 cells stably overexpressing human NOX3
# Type: cell-based
# Conditions: HEK293-hNOX3, PMA stimulated
# Excerpt: Plasmids are Purchased from Vectorbuilder. • for HEK-hNOX1 all necessary subunits are cloned accordingly: • pLV-CMV-hNOX1-puro (NM_007052.5) • pLV-CMV-hNOXO1-blas (NM_172168.3) • pLV-CMV-hp22phox-hygro (NM_000101.4) • pLV-CMV-hNOXA1-neo (NM_006647.2) • for HEK-hNOX3 • pLV-CMV-hNOX3-puro (NM_015718.3)
# 3rd generation lentiviral particles are produced in HEK293 suspension cells by transient transfection of three helper and expression plasmids. Crucial lentivirus supernatants are harvested, clarified by filtration and concentrated by precipitation. Lentivirus titers are determined in transducing units in (TU/mL) by transduction of HT1080 cells and colony forming assay. Parental HEK293 cells, purchased from CLS GmbH, are transduced with replication-incompetent 3rd generation lentiviral particles (MOI 2) and expanded for at least 2 weeks before cryopreservation of tested lots. During cultivation, medium is changed three times per week and cells are sub-cultured at least once per week. Selection antibiotics are added according to the plasmids (1 μg/ml puromycin, 1.5 μg/ml blasticidin, 200 μg/ml G418 and 100 μg/ml hygromycin).
# Evaluation of the NOX4 inhibitors on NOX3 activity is assessed in HEK293 cells stably overexpressing human NOX3 (hNOX3).
# Cells are seeded in 384 well plates for 2 days. […] Cells are then stimulated with PMA at 0.1 μM to induce NOX3-dependent ROS production. […] Luminescence is measured with an PHERAstar multimode reader.
row,IC50 [µM],SMILES
1,4.1,"O=c1c2scnc2nc(SCc2ccc(Cl)cc2F)n1-c1cc(F)c(O)c(F)c1 [Example 2, 5-((4-Chloro-2-fluorobenzyl)thio)-6-(3,5-difluoro-4-hydroxyphenyl)thiazolo[4,5-d]-pyrimidin-7(6H)-one]"
2,4.1,Cc1cc(F)cc(C)c1CSc1nc2ncsc2c(=O)n1-c1cc(F)c(O)c(F)c1 [Example 4]
3,62.1,O=c1c2scnc2nc(SCc2ccc(C(F)(F)F)cc2F)n1-c1ccc(O)nc1 [Example 26]
4,38,"O=c1c2scnc2nc(SCc2ccc(C(F)(F)F)cc2)n1-c1cnc(O)c(F)c1 [Example 32, 6-(5-Fluoro-6-hydroxypyridin-3-yl)-5-((4-(trifluoromethyl)benzyl)thio)thiazolo[4,5-d]pyrimidin-7(6H)-one]"
5,25.5,O=c1c2scnc2nc(SCc2c(F)cc(F)cc2F)n1-c1ccc(O)cc1F [Example 14]
6,59.1,O=c1c2scnc2nc(SCc2c(F)cc(F)cc2F)n1-c1ccc(O)c(Cl)c1 [Example 16]
7,49.4,Cc1cc(Cl)ccc1CSc1nc2ncsc2c(=O)n1-c1cnc(O)nc1 [Example 54]
8,> 100,O=c1c2scnc2nc(SCc2ccc(Cl)cc2)n1-c1ccc(O)nn1 [Example 64]
9,77.5,"O=c1c2scnc2nc(SCc2c(F)cc(F)cc2F)n1-c1cnc(O)cn1 [Example 69, 6-(5-Hydroxypyrazin-2-yl)-5-((2,4,6-trifluorobenzyl)thio)thiazolo[4,5-d]pyrimidin-7(6H)-one]"
10,64.7,"O=c1c2scnc2nc(SCc2c(F)cc(F)cc2F)n1-c1ccc(O)nc1F [Example 50, 6-(2-Fluoro-6-hydroxypyridin-3-yl)-5-((2,4,6-trifluorobenzyl)thio)thiazolo[4,5-d]-pyrimidin-7(6H)-one]"
11,> 100,Cc1cc(F)ccc1CSc1nc2ncsc2c(=O)n1-c1ccc(O)nn1 [Example 68]
12,> 100,Cc1cc(F)cc(C)c1CSc1nc2ncsc2c(=O)n1-c1ccc(O)nc1 [Example 24]
13,18.8,"N#Cc1cc(-n2c(SCc3c(F)cc(F)cc3F)nc3ncsc3c2=O)cnc1O [Example 47, 2-Hydroxy-5-(7-oxo-5-((2,4,6-trifluorobenzyl)thio)thiazolo[4,5-d]pyrimidin-6(7H)-yl)-nicotinonitrile]"

# Source: US20240327429A1, “[1,3]Thiazolo[4,5-d]-pyrimidon-7-ones as inhibitors of NOX4” (Boehringer Ingelheim International GmbH, priority 2023, published 2024)
